Assay results published in patent US11807644B2 (PMV Pharmaceuticals, Inc., priority 2020, dated 2023).

Biological target: T1, recombinant His-tag Y220C p53 DBD protein (Homo sapiens, UniProt P04637, Y220C)
T1 construct: recombinant His-tag Y220C p53 DBD protein (amino acids #˜94-312)
Experiment: In vitro DNA binding activity assay (TR-FRET): binding of His-tag Y220C p53 DBD to biotin-labeled consensus DNA
Type: biochemical
Settings: SC150 = concentration to increase DNA binding by […], His-tag Y220C p53 DBD, biotin-labeled consensus DNA

Compound | Y220C SC150 (μM)
CN1CC[C@@H](Nc2cccc3c2cc(-c2noc(CNC(=O)c4ccn(C(C)(C)C)n4)n2)n3CC(F)(F)F)[C@@H](F)C1 [Compound 529B, 1-tert-butyl-N-{[3-(4-{[(3S,4R)-3-fluoro-1-methylpiperidin-4-yl]amino}-1-(2,2,2-trifluoroethyl)-1H-indol-2-yl)-1,2,4-oxadiazol-5-yl]methyl}-1H-pyrazole-3-carboxamide] | * (* = 0 μM ≤ SC150 < 0.1 μM)
CC(C)c1nc(C(=O)NCc2nc(-c3cc4c(N[C@@H]5CCN(C)C[C@@H]5F)cccc4n3CC(F)(F)F)no2)cn1C [Compound 539B, N-{[3-(4-{[(3S,4R)-3-fluoro-1-methylpiperidin-4-yl]amino}-1-(2,2,2-trifluoroethyl)-1H-indol-2-yl)-1,2,4-oxadiazol-5-yl]methyl}-1-methyl-2-(propan-2-yl)-1H-imidazole-4-carboxamide] | * (* = 0 μM ≤ SC150 < 0.1 μM)
CN1CC[C@@H](Nc2cccc3c2cc(-c2noc(CNC(=O)c4cccn4CCF)n2)n3CC(F)(F)F)[C@@H](F)C1 [Compound 540B, N-{[3-(4-{[(3S,4R)-3-fluoro-1-methylpiperidin-4-yl]amino}-1-(2,2,2-trifluoroethyl)-1H-indol-2-yl)-1,2,4-oxadiazol-5-yl]methyl}-1-(2-fluoroethyl)-1H-pyrrole-2-carboxamide] | * (* = 0 μM ≤ SC150 < 0.1 μM)
CN1CC[C@@H](Nc2cccc3c2cc(-c2noc(CNC(=O)c4ccc(C(C)(C)C)n4C)n2)n3CC(F)(F)F)[C@@H](F)C1 [Compound 542B, 5-tert-butyl-N-{[3-(4-{[(3S,4R)-3-fluoro-1-methylpiperidin-4-yl]amino}-1-(2,2,2-trifluoroethyl)-1H-indol-2-yl)-1,2,4-oxadiazol-5-yl]methyl}-1-methyl-1H-pyrrole-2-carboxamide] | * (* = 0 μM ≤ SC150 < 0.1 μM)
CN1CC[C@@H](Nc2cccc3c2cc(-c2noc(CNC(=O)c4cc(C(C)(C)C)on4)n2)n3CC(F)(F)F)[C@@H](F)C1 [Compound 543B, 5-tert-butyl-N-{[3-(4-{[(3S,4R)-3-fluoro-1-methylpiperidin-4-yl]amino}-1-(2,2,2-trifluoroethyl)-1H-indol-2-yl)-1,2,4-oxadiazol-5-yl]methyl}-1,2-oxazole-3-carboxamide] | * (* = 0 μM ≤ SC150 < 0.1 μM)
CN1CC[C@@H](Nc2cccc3c2cc(-c2noc(C(=O)NCc4ccccc4)n2)n3CC(F)(F)F)[C@@H](F)C1 [Compound 544B, N-benzyl-3-(4-{[(3S,4R)-3-fluoro-1-methylpiperidin-4-yl]amino}-1-(2,2,2-trifluoroethyl)-1H-indol-2-yl)-1,2,4-oxadiazole-5-carboxamide] | ** (** = 0.1 μM ≤ SC150 < 0.5 μM)
CN1CC[C@@H](Nc2cccc3c2cc(-c2noc(C(=O)NCC4CC4)n2)n3CC(F)(F)F)[C@@H](F)C1 [Compound 545B, N-(cyclopropylmethyl)-3-(4-{[(3S,4R)-3-fluoro-1-methylpiperidin-4-yl]amino}-1-(2,2,2-trifluoroethyl)-1H-indol-2-yl)-1,2,4-oxadiazole-5-carboxamide] | ** (** = 0.1 μM ≤ SC150 < 0.5 μM)
CN1CC[C@@H](Nc2cccc3c2cc(-c2noc(C(=O)NCc4cnn(C)c4)n2)n3CC(F)(F)F)[C@@H](F)C1 [Compound 546B, 3-(4-{[(3S,4R)-3-fluoro-1-methylpiperidin-4-yl]amino}-1-(2,2,2-trifluoroethyl)-1H-indol-2-yl)-N-[(1-methyl-1H-pyrazol-4-yl)methyl]-1,2,4-oxadiazole-5-carboxamide] | ** (** = 0.1 μM ≤ SC150 < 0.5 μM)
CN1CC[C@@H](Nc2cccc3c2cc(-c2noc(CNC(=O)c4ccn(C(C)(C)CF)n4)n2)n3CC(F)(F)F)[C@@H](F)C1 [Compound 548B, N-{[3-(4-{[(3S,4R)-3-fluoro-1-methylpiperidin-4-yl]amino}-1-(2,2,2-trifluoroethyl)-1H-indol-2-yl)-1,2,4-oxadiazol-5-yl]methyl}-1-(1-fluoro-2-methylpropan-2-yl)-1H-pyrazole-3-carboxamide] | * (* = 0 μM ≤ SC150 < 0.1 μM)
CN1CC[C@@H](Nc2cccc3c2cc(-c2cc(CNC(=O)c4ccn(C(C)(C)C)c4)on2)n3CC(F)(F)F)[C@@H](F)C1 [Compound 553B, 1-tert-butyl-N-{[3-(4-{[(3S,4R)-3-fluoro-1-methylpiperidin-4-yl]amino}-1-(2,2,2-trifluoroethyl)-1H-indol-2-yl)-1,2-oxazol-5-yl]methyl}-1H-pyrrole-3-carboxamide] | * (* = 0 μM ≤ SC150 < 0.1 μM)

Next, values leading:

Y220C SC150 (μM) | Compound
* (* = 0 μM ≤ SC150 < 0.1 μM) | COC(C)(C)c1nc(C(=O)NCc2nc(-c3cc4c(N[C@@H]5CCN(C)C[C@@H]5F)cccc4n3CC(F)(F)F)no2)cs1 [Compound 530B, N-{[3-(4-{[(3S,4R)-3-fluoro-1-methylpiperidin-4-yl]amino}-1-(2,2,2-trifluoroethyl)-1H-indol-2-yl)-1,2,4-oxadiazol-5-yl]methyl}-2-(2-methoxypropan-2-yl)-1,3-thiazole-4-carboxamide]
* (* = 0 μM ≤ SC150 < 0.1 μM) | CN1CC[C@@H](Nc2cccc3c2cc(-c2noc(CNC(=O)c4csc(C(C)(C)CO)n4)n2)n3CC(F)(F)F)[C@@H](F)C1 [Compound 532B, N-{[3-(4-{[(3S,4R)-3-fluoro-1-methylpiperidin-4-yl]amino}-1-(2,2,2-trifluoroethyl)-1H-indol-2-yl)-1,2,4-oxadiazol-5-yl]methyl}-2-(1-hydroxy-2-methylpropan-2-yl)-1,3-thiazole-4-carboxamide]
* (* = 0 μM ≤ SC150 < 0.1 μM) | CCn1cccc1C(=O)NCc1nc(-c2cc3c(N[C@@H]4CCN(C)C[C@@H]4F)cccc3n2CC(F)(F)F)no1 [Compound 534B, 1-ethyl-N-{[3-(4-{[(3S,4R)-3-fluoro-1-methylpiperidin-4-yl]amino}-1-(2,2,2-trifluoroethyl)-1H-indol-2-yl)-1,2,4-oxadiazol-5-yl]methyl}-1H-pyrrole-2-carboxamide]
* (* = 0 μM ≤ SC150 < 0.1 μM) | CC(C)Cn1cccc1C(=O)NCc1nc(-c2cc3c(N[C@@H]4CCN(C)C[C@@H]4F)cccc3n2CC(F)(F)F)no1 [Compound 535B, N-{[3-(4-{[(3S,4R)-3-fluoro-1-methylpiperidin-4-yl]amino}-1-(2,2,2-trifluoroethyl)-1H-indol-2-yl)-1,2,4-oxadiazol-5-yl]methyl}-1-(2-methylpropyl)-1H-pyrrole-2-carboxamide]
* (* = 0 μM ≤ SC150 < 0.1 μM) | COCCN(C)c1nc(C(=O)NCc2nc(-c3cc4c(N[C@@H]5CCN(C)C[C@@H]5F)cccc4n3CC(F)(F)F)no2)cs1 [Compound 536B, N-{[3-(4-{1[(3S,4R)-3-fluoro-1-methylpiperidin-4-yl]amino}-1-(2,2,2-trifluoroethyl)-1H-indol-2-yl)-1,2,4-oxadiazol-5-yl]methyl}-2-[(2-methoxyethyl)(methyl)amino]-1,3-thiazole-4-carboxamide]
* (* = 0 μM ≤ SC150 < 0.1 μM) | COC[C@@H]1CCCN1c1cc(C(=O)NCc2nc(-c3cc4c(N[C@@H]5CCN(C)C[C@@H]5F)cccc4n3CC(F)(F)F)no2)cs1 [Compound 537B, N-{[3-(4-{[(3S,4R)-3-fluoro-1-methylpiperidin-4-yl]amino}-1-(2,2,2-trifluoroethyl)-1H-indol-2-yl)-1,2,4-oxadiazol-5-yl]methyl}-5-[(2S)-2-(methoxymethyl)pyrrolidin-1-yl]thiophene-3-carboxamide]
* (* = 0 μM ≤ SC150 < 0.1 μM) | COCCn1cccc1C(=O)NCc1nc(-c2cc3c(N[C@@H]4CCN(C)C[C@@H]4F)cccc3n2CC(F)(F)F)no1 [Compound 538B, N-{[3-(4-{[(3S,4R)-3-fluoro-1-methylpiperidin-4-yl]amino}-1-(2,2,2-trifluoroethyl)-1H-indol-2-yl)-1,2,4-oxadiazol-5-yl]methyl}-1-(2-methoxyethyl)-1H-pyrrole-2-carboxamide]
* (* = 0 μM ≤ SC150 < 0.1 μM) | CN1CC[C@@H](Nc2cccc3c2cc(-c2noc(CNC(=O)c4cn5c(n4)CCCC5)n2)n3CC(F)(F)F)[C@@H](F)C1 [Compound 541B, N-{[3-(4-{[(3S,4R)-3-fluoro-1-methylpiperidin-4-yl]amino}-1-(2,2,2-trifluoroethyl)-1H-indol-2-yl)-1,2,4-oxadiazol-5-yl]methyl}-5H,6H, 7H,8H-imidazo[1,2-a]pyridine-2-carboxamide]
* (* = 0 μM ≤ SC150 < 0.1 μM) | COCC(C)(C)n1ccc(C(=O)NCc2nc(-c3cc4c(N[C@@H]5CCN(C)C[C@@H]5F)cccc4n3CC(F)(F)F)no2)n1 [Compound 547B, N-{[3-(4-{[(3S,4R)-3-fluoro-1-methylpiperidin-4-yl]amino}-1-(2,2,2-trifluoroethyl)-1H-indol-2-yl)-1,2,4-oxadiazol-5-yl]methyl}-1-(1-methoxy-2-methylpropan-2-yl)-1H-pyrazole-3-carboxamide]
* (* = 0 μM ≤ SC150 < 0.1 μM) | CN1CC[C@@H](Nc2cccc3c2cc(-c2noc(CNC(=O)c4cccc(C(C)(C)O)c4)n2)n3CC(F)(F)F)[C@@H](F)C1 [Compound 549B, N-{[3-(4-{[(3S,4R)-3-fluoro-1-methylpiperidin-4-yl]amino}-1-(2,2,2-trifluoroethyl)-1H-indol-2-yl)-1,2,4-oxadiazol-5-yl]methyl}-3-(2-hydroxypropan-2-yl)benzamide]
* (* = 0 μM ≤ SC150 < 0.1 μM) | CN1CC[C@@H](Nc2cccc3c2cc(-c2noc(CNC(=O)c4ccnc(C(C)(C)O)c4)n2)n3CC(F)(F)F)[C@@H](F)C1 [Compound 550B, N-{[3-(4-{[(3S,4R)-3-fluoro-1-methylpiperidin-4-yl]amino}-1-(2,2,2-trifluoroethyl)-1H-indol-2-yl)-1,2,4-oxadiazol-5-yl]methyl}-2-(2-hydroxypropan-2-yl)pyridine-4-carboxamide]
* (* = 0 μM ≤ SC150 < 0.1 μM) | COCc1cc(C(=O)NCc2nc(-c3cc4c(N[C@@H]5CCN(C)C[C@@H]5F)cccc4n3CC(F)(F)F)no2)cc(C)n1 [Compound 551B, N-{[3-(4-{[(3S,4R)-3-fluoro-1-methylpiperidin-4-yl]amino}-1-(2,2,2-trifluoroethyl)-1H-indol-2-yl)-1,2,4-oxadiazol-5-yl]methyl}-2-(methoxymethyl)-6-methylpyridine-4-carboxamide]
